Structures can show the parent of a compound that is named as a salt.
Columns and labels:
activated human C1 = biological target: T1, activated human C1 (Homo sapiens, UniProt P09871); assay: Test, Code 026 (C1 inhibitor); assay type: biochemical
T1 construct: fluid-phase human C2 consumption in presence of C4
Excerpt: An active inhibitor protects C2 from C1 and C4; (ii) Test, Code 035 (C3-C9 inhibitor)-This test determines the ability of the late components of human complement (C3-C9) to lyse EAC 142 in the presence of appropriate dilutions of the test compound. An active inhibitor protects EAC 142 from lysis by human C3-C9; (iii) Test, Code 036 (C-Shunt inhibitor) - In this test human erythrocytes rendered fragile are lysed in autologous serum via the shunt pathway activated by cobra venom factor in the presence of appropriate dilutions of the test compound. Inhibition of the shunt pathway results in failure of lysis; (iv) Forssman Vasculitis Test -- Here, the well known complement dependent lesion, Forssman vasculitis, is produced in guinea pigs by intradermal injection of rabbit anti-Forssman antiserum. The lesion is measured in terms of diameter, edema and hemorrhage and the extent to which a combined index of these is inhibited by prior intraperitoneal injection of the test compound at 200 mg/kg is then reported, unless otherwise stated; (v) Forssman Shock Test -- Lethal shock is produced in guinea pigs by an i.v. injection of anti-Forssman antiserum and the harmonic mean death time of treated guinea pigs is compared with that of simultaneous controls; (vi) Complement Level Reduction Test -- In this test, the above dosed guinea pigs, or others, are bled for serum and the complement level is determined in undiluted serum by the capillary tube method of U.S. Pat. No. 3,876,376 and compared to undosed control guinea pigs; and (vii) Cap 50 Test -- Here, appropriate amounts of the test compound are added to a pool of guinea pig serum in vitro, after which the undiluted serum capillary tube assay referred to above is run. The concentration of compound inhibiting 50% is reported.

[1] = system: Citrated sheep plasma (CSP); assay: in vitro anti-coagulant activity (AC); assay type: biochemical
Experimental: The sheep RBC's, kept in suspension throughout the clotting incubation time, become enmeshed in the fibrin matrix if a clot forms. Upon centrifugation of the plate, untrapped RBC's form buttons, the sizes of which correspond to the degree of clot inhibition; this providing a measure of anti-coagulant activity (AC). Sodium heparin is used as a positive control and activity is reported in wells appearing in Table I.

T1 sequence (P09871 16-688): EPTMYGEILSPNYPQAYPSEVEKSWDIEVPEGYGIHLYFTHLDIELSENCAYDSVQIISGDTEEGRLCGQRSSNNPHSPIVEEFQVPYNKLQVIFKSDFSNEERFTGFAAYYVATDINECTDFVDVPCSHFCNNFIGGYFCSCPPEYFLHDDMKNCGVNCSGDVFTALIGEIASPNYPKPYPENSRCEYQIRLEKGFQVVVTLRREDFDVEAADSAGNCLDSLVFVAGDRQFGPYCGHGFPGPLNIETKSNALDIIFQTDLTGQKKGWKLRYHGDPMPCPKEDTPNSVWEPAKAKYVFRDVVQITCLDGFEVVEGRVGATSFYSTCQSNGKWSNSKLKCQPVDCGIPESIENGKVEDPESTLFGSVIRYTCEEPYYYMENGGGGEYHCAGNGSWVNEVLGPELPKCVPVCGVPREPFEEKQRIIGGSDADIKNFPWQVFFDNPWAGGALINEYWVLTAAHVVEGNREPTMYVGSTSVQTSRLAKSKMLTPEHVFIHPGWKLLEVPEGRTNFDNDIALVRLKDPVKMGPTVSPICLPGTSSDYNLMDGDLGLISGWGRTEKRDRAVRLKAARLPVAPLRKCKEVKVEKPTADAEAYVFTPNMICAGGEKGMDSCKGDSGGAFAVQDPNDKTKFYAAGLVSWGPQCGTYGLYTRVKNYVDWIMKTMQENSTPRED
T1 sequence (P00736 18-705 partner): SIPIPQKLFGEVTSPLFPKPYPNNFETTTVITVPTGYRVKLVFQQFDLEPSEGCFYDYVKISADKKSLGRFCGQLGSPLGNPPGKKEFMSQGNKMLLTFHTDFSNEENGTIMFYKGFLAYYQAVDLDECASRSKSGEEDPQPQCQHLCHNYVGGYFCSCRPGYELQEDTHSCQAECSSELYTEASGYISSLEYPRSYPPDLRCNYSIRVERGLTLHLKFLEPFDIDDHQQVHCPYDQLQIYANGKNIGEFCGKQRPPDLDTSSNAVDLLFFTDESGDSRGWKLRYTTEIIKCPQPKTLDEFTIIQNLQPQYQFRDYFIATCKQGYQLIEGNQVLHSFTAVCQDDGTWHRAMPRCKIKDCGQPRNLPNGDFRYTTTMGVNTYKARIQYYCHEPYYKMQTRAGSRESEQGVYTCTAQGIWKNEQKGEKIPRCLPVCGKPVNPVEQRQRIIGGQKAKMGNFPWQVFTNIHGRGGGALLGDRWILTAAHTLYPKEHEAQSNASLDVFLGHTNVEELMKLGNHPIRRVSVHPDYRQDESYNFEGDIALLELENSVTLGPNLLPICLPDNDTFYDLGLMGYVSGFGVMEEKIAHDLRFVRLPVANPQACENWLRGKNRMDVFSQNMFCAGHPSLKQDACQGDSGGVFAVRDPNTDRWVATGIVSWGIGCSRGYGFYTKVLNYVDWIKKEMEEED
T1 sequence (P02745 23-245 partner): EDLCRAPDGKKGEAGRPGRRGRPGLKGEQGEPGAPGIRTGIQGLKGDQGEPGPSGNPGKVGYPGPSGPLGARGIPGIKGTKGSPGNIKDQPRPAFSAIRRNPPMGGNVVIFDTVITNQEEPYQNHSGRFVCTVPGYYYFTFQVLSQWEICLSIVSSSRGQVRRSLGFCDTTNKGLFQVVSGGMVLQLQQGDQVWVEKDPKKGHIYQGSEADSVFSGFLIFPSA
T1 sequence (P02746 28-253 partner): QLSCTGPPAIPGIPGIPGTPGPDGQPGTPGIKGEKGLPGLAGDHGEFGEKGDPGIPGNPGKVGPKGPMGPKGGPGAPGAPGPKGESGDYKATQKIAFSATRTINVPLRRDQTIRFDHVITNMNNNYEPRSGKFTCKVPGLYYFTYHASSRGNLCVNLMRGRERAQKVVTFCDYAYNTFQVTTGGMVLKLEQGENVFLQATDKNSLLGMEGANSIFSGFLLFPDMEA
T1 sequence (P02747 29-245 partner): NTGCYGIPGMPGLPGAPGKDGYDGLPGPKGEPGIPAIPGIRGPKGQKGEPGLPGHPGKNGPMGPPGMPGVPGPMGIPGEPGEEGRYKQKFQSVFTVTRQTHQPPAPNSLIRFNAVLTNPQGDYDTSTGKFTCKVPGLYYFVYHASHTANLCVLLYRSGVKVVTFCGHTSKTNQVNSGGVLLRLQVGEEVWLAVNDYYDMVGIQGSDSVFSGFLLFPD

Cl 026 Wells (activated human C1; Table I, two-fold serial dilution assay, higher well number indicates higher activity): +3 Wells
In Vitro Activity, Complement Inhibiting Activity (Wells) Code 026 (activated human C1; Table II): +3 Wells
Logarithmic Difference Expressed as Wells (activated human C1; Table II, Code 026 wells minus AC wells (base 2)): +5 Wells
Compound: O=C(O)c1cc(C(=O)O)cc(C(=O)Nc2cc(NC(=O)c3cc(C(=O)O)cc(C(=O)O)c3)cc(NC(=O)c3cc(C(=O)O)cc(C(=O)O)c3)c2)c1 [5,5',5"-[s-Phenenyltris(iminocarbonyl)]triisophthalic acid hexasodium salt]
AC Wells ([1]; Table I, clot inhibition, recalcified citrated sheep plasma with sheep RBC, serial dilutions): < -2 Wells
In Vitro Activity, Anti-Coagulant Activity (Wells) AC ([1]; Table II): -2 Wells

— patent US4120895A, “S-phenenyltris (iminocarbonyl) triisophthalic acid salts” (American Cyanamid Company, priority 1977, dated 1978)
